± gives the standard deviation of the averaged measurements.
Columns and labels:
Assay in all cases: level (log10 ratio to DMSO vehicle control); higher = higher biomarker level / cell amount than vehicle control
Conditions in all cases: in DMSO
[1] = compound: CC(C)(C)C(=O)CC(=O)C(F)(F)C(F)(F)C(F)(F)F [(Heptafluorobutanoyl)pivaloylmethane]
Description: (§1)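 BioMAP Diversity Plus panel of 12 human primary cell co-culture systems (3C, 4H, LPS, SAg, BT, BF4T, BE3C, CASM3C, HDF3CGF, KF3CT, MyoF, Mphg). Compounds were added 1 h before stimulation and left for 24 h (MyoF 48 h; BT 72 h for soluble read-outs or 6 d for IgG). Biomarkers were read by ELISA, cytotoxicity by SRB, PBMC viability and proliferation by Alamar Blue. Each well value was divided by the mean of 8 DMSO control wells on the same plate and log10 transformed; duplicate blinded samples were tested at 4 concentrations.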

[2] = compound: FC(F)(F)C(F)(F)C(F)(F)C(F)(F)C(F)(F)C(F)(F)C(F)(F)CCI [1-Iodo-1H,1H,2H,2H-perfluorononane]
Description: as §1

[3] = compound: NC(=O)C(F)(F)C(F)(F)C(F)(F)C(F)(F)C(F)(F)C(F)(F)C(F)(F)F [Perfluorooctanamide]
Description: as §1

[4] = compound: O=C(O)C(F)(F)C(F)(F)C(F)(F)C(F)(F)C(F)(F)C(F)(F)C(F)(F)C(F)(F)C(F)(F)C(F)(F)C(F)(F)C(F)(F)C(F)(F)F [Perfluorotetradecanoic acid]
Description: as §1

[5] = compound: O=C(O)CCC(F)(F)C(F)(F)C(F)(F)C(F)(F)C(F)(F)F [2H,2H,3H,3H-Perfluorooctanoic acid]
Description: as §1

[6] = compound: O=S(=O)(O)C(F)(F)C(F)(F)C(F)(F)C(F)(F)F [Perfluorobutanesulfonic acid]
Description: as §1

[7] = compound: OCC(F)(F)C(F)(F)C(F)(F)F [1H,1H-Heptafluorobutanol]
Description: as §1

Test System: KF3CT:CCL2/MCP-1
- level (log10) ([1]; 6700 nM): 0.0025 ± 0.005
- level (log10) ([1]; 20000 nM): 0.035 ± 0.0085
- level (log10) ([1]; 60000 nM): 0.0645 ± 0.013
- level (log10) ([2]; 6700 nM): 0.01 ± 0.03
- level (log10) ([2]; 20000 nM): 0.0795 ± 0.07
- level (log10) ([3]; 6700 nM): -0.011 ± 0.017
- level (log10) ([3]; 20000 nM): -0.034 ± 0.031
- level (log10) ([3]; 60000 nM): -0.091 ± 0.0028
- level (log10) ([4]; 6700 nM): 0.004 ± 0.0071
- level (log10) ([4]; 20000 nM): 0.0205 ± 0.0078
- level (log10) ([5]; 6700 nM): -0.026
- level (log10) ([5]; 20000 nM): 0.0135 ± 0.016
- level (log10) ([5]; 60000 nM): -0.0235 ± 0.069
- level (log10) ([6]; 6700 nM): -0.032 ± 0.017
- level (log10) ([6]; 20000 nM): -0.0095 ± 0.026
- level (log10) ([6]; 60000 nM): 0.0135 ± 0.083
- level (log10) ([7]; 6700 nM): 0.0035 ± 0.005
- level (log10) ([7]; 20000 nM): 0.006 ± 0.0042
- level (log10) ([7]; 60000 nM): 0.0235 ± 0.015

Test System: KF3CT:CD54/ICAM-1
- level (log10) ([1]; 6700 nM): -0.0095 ± 0.011
- level (log10) ([1]; 20000 nM): -0.0265 ± 0.018
- level (log10) ([1]; 60000 nM): -0.021 ± 0.0042
- level (log10) ([2]; 6700 nM): -0.0045 ± 0.0092
- level (log10) ([2]; 20000 nM): -0.0175 ± 0.025
- level (log10) ([3]; 6700 nM): 0.0015 ± 0.0078
- level (log10) ([3]; 20000 nM): 0 ± 0.014
- level (log10) ([3]; 60000 nM): 0.001
- level (log10) ([4]; 6700 nM): -0.003 ± 0.027
- level (log10) ([4]; 20000 nM): -0.0375 ± 0.015
- level (log10) ([5]; 6700 nM): -0.016 ± 0.0085
- level (log10) ([5]; 20000 nM): -0.0205 ± 0.018
- level (log10) ([5]; 60000 nM): -0.0285 ± 0.023
- level (log10) ([6]; 6700 nM): 0.0015 ± 0.029
- level (log10) ([6]; 20000 nM): 0.0225 ± 0.012
- level (log10) ([6]; 60000 nM): 0.0005 ± 0.00071
- level (log10) ([7]; 6700 nM): 0.009 ± 0.0099
- level (log10) ([7]; 20000 nM): -0.0095 ± 0.0092
- level (log10) ([7]; 60000 nM): 0.019 ± 0.0014

Test System: KF3CT:CXCL8/IL-8
- level (log10) ([1]; 6700 nM): -0.015 ± 0.011
- level (log10) ([1]; 20000 nM): -0.0165 ± 0.0078
- level (log10) ([1]; 60000 nM): 0.016 ± 0.0014
- level (log10) ([2]; 6700 nM): 0.013 ± 0.0071
- level (log10) ([2]; 20000 nM): 0.0605 ± 0.0092
- level (log10) ([3]; 6700 nM): -0.005 ± 0.0014
- level (log10) ([3]; 20000 nM): -0.027 ± 0.018
- level (log10) ([3]; 60000 nM): -0.062 ± 0.0057
- level (log10) ([4]; 6700 nM): 0.0005 ± 0.013
- level (log10) ([4]; 20000 nM): 0.0245 ± 0.025
- level (log10) ([5]; 6700 nM): -0.017 ± 0.042
- level (log10) ([5]; 20000 nM): -0.009 ± 0.028
- level (log10) ([5]; 60000 nM): -0.0295 ± 0.0021
- level (log10) ([6]; 6700 nM): -0.031 ± 0.02
- level (log10) ([6]; 20000 nM): -0.002 ± 0.0042
- level (log10) ([6]; 60000 nM): 0.004 ± 0.0071
- level (log10) ([7]; 6700 nM): -0.02 ± 0.0014
- level (log10) ([7]; 20000 nM): -0.021 ± 0.0028
- level (log10) ([7]; 60000 nM): -0.0025 ± 0.016

Test System: KF3CT:CXCL9/MIG
- level (log10) ([1]; 6700 nM): 0.0025 ± 0.0035
- level (log10) ([1]; 20000 nM): -0.002 ± 0.0042
- level (log10) ([1]; 60000 nM): 0.0055 ± 0.0021
- level (log10) ([2]; 6700 nM): 0.0045 ± 0.00071
- level (log10) ([2]; 20000 nM): -0.01 ± 0.025
- level (log10) ([3]; 6700 nM): 0.0035 ± 0.039
- level (log10) ([3]; 20000 nM): 0.0105 ± 0.016
- level (log10) ([3]; 60000 nM): 0.018 ± 0.0042
- level (log10) ([4]; 6700 nM): -0.0065 ± 0.016
- level (log10) ([4]; 20000 nM): 0.0055 ± 0.00071
- level (log10) ([5]; 6700 nM): -0.004 ± 0.011
- level (log10) ([5]; 20000 nM): 0.0025 ± 0.0092
- level (log10) ([5]; 60000 nM): 0.0075 ± 0.00071
- level (log10) ([6]; 6700 nM): 0.0185 ± 0.029
- level (log10) ([6]; 20000 nM): 0.021 ± 0.017
- level (log10) ([6]; 60000 nM): 0.0345 ± 0.0078
- level (log10) ([7]; 6700 nM): -0.0015 ± 0.0021
- level (log10) ([7]; 20000 nM): 0.002 ± 0.0028
- level (log10) ([7]; 60000 nM): 0.0055 ± 0.005

Test System: KF3CT:CXCL10/IP-10
- level (log10) ([1]; 6700 nM): 0.004 ± 0.0099
- level (log10) ([1]; 20000 nM): -0.006 ± 0.0028
- level (log10) ([1]; 60000 nM): 0.007 ± 0.0014
- level (log10) ([2]; 6700 nM): -0.0065 ± 0.005
- level (log10) ([2]; 20000 nM): -0.0235 ± 0.0092
- level (log10) ([3]; 6700 nM): 0.0285 ± 0.036
- level (log10) ([3]; 20000 nM): 0.0365 ± 0.037
- level (log10) ([3]; 60000 nM): 0.0365 ± 0.016
- level (log10) ([4]; 6700 nM): 0.0065 ± 0.016
- level (log10) ([4]; 20000 nM): -0.0165 ± 0.016
- level (log10) ([5]; 6700 nM): -0.0045 ± 0.0021
- level (log10) ([5]; 20000 nM): -0.0125 ± 0.0078
- level (log10) ([5]; 60000 nM): -0.0185 ± 0.011
- level (log10) ([6]; 6700 nM): 0.0305 ± 0.025
- level (log10) ([6]; 20000 nM): 0.0385 ± 0.028
- level (log10) ([6]; 60000 nM): 0.0405 ± 0.019
- level (log10) ([7]; 6700 nM): 0.004 ± 0.0042
- level (log10) ([7]; 20000 nM): -0.0025 ± 0.016
- level (log10) ([7]; 60000 nM): 0.012 ± 0.0071

Test System: KF3CT:IL-1alpha
- level (log10) ([1]; 6700 nM): 0.02 ± 0.021
- level (log10) ([1]; 20000 nM): 0.015 ± 0.013
- level (log10) ([1]; 60000 nM): 0.02 ± 0.023
- level (log10) ([2]; 6700 nM): -0.01 ± 0.0071
- level (log10) ([2]; 20000 nM): 0.019 ± 0.047
- level (log10) ([3]; 6700 nM): -0.0055 ± 0.011
- level (log10) ([3]; 20000 nM): 0.0125 ± 0.0064
- level (log10) ([3]; 60000 nM): 0.039 ± 0.03
- level (log10) ([4]; 6700 nM): -0.0135 ± 0.081
- level (log10) ([4]; 20000 nM): -0.0235 ± 0.054
- level (log10) ([5]; 6700 nM): 0.007 ± 0.0085
- level (log10) ([5]; 20000 nM): -0.0055 ± 0.016
- level (log10) ([5]; 60000 nM): -0.0345 ± 0.029
- level (log10) ([6]; 6700 nM): -0.009 ± 0.0042
- level (log10) ([6]; 20000 nM): -0.0085 ± 0.0078
- level (log10) ([6]; 60000 nM): -0.006 ± 0.025
- level (log10) ([7]; 6700 nM): 0 ± 0.0042
- level (log10) ([7]; 20000 nM): 0 ± 0.0014
- level (log10) ([7]; 60000 nM): -0.018 ± 0.0057

Test System: KF3CT:MMP-9
- level (log10) ([1]; 6700 nM): -0.018 ± 0.0099
- level (log10) ([1]; 20000 nM): -0.0175 ± 0.023
- level (log10) ([1]; 60000 nM): -0.014 ± 0.041
- level (log10) ([2]; 6700 nM): -0.006 ± 0.0042
- level (log10) ([2]; 20000 nM): 0.0165 ± 0.013
- level (log10) ([3]; 6700 nM): -0.011 ± 0.017
- level (log10) ([3]; 20000 nM): -0.0265 ± 0.0092
- level (log10) ([3]; 60000 nM): -0.0905 ± 0.0021
- level (log10) ([4]; 6700 nM): -0.005 ± 0.0014
- level (log10) ([4]; 20000 nM): 0.0065 ± 0.032
- level (log10) ([5]; 6700 nM): -0.0235 ± 0.021
- level (log10) ([5]; 20000 nM): -0.018 ± 0.02
- level (log10) ([5]; 60000 nM): 0.026 ± 0.0057
- level (log10) ([6]; 6700 nM): -0.0115 ± 0.0021
- level (log10) ([6]; 20000 nM): -0.008 ± 0.013
- level (log10) ([6]; 60000 nM): -0.0145 ± 0.005
- level (log10) ([7]; 6700 nM): -0.013 ± 0.0071
- level (log10) ([7]; 20000 nM): -0.0065 ± 0.005
- level (log10) ([7]; 60000 nM): -0.01 ± 0.0028

Source: the supplement of paper PMC10331698
